ChEMBL document CHEMBL1201862, “PubChem BioAssay data set” (2004)
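48-hour exposure; five concentrations; linearly interpolated endpoints. The concentration for 50% growth inhibition is given as GI50.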 Activity calls are given as the source filed them. Rule as the data show it: active = GI50 up to about 1.1 µM and inactive = higher.

What was measured:
Test in all cases: NCI anticancer screen, dose series, 48 h
NCI-H460 = test system: NCI-H460
OVCAR-4 = test system: OVCAR-4
HCC 2998 = test system: HCC 2998
SK-OV-3 = test system: SK-OV-3
CCRF-CEM = test system: CCRF-CEM
OVCAR-3 = test system: OVCAR-3
NCI-H522 = test system: NCI-H522
RXF 393 = test system: RXF 393
HCT-116 = test system: HCT-116
OVCAR-8 = test system: OVCAR-8
TK-10 = test system: TK-10
DU-145 = test system: DU-145
Hs-578T = test system: Hs-578T
M14 = test system: M14
MDA-N = test system: MDA-N
MDA-MB-231 = test system: MDA-MB-231
SR = test system: SR
ACHN = test system: ACHN

SMILES | GI50 (NCI-H460) | GI50 (OVCAR-4) | GI50 (HCC 2998) | GI50 (SK-OV-3) | GI50 (CCRF-CEM) | GI50 (OVCAR-3) | GI50 (NCI-H522) | GI50 (RXF 393) | GI50 (HCT-116) | GI50 (OVCAR-8) | GI50 (TK-10) | GI50 (DU-145) | GI50 (Hs-578T) | GI50 (M14) | GI50 (MDA-N) | GI50 (MDA-MB-231) | GI50 (SR) | GI50 (ACHN)
Nc1ncnc2c1ncn2C1CCC(CO)O1 (stereo not given) | > 100 µM (inactive) | > 82.8 µM (inactive) | > 77.4 µM (inactive) | > 77.6 µM (inactive) | > 100 µM (inactive) | > 100 µM (inactive) | > 100 µM (inactive) | > 100 µM (inactive) | > 100 µM (inactive) | > 79.4 µM (inactive) |  |  |  |  |  |  |  | 
CCOC(=O)C(COS(C)(=O)=O)(COS(C)(=O)=O)C(=O)OCC | > 100 µM (inactive) | > 100 µM (inactive) | > 100 µM (inactive) | > 100 µM (inactive) | > 100 µM (inactive) | > 100 µM (inactive) | > 100 µM (inactive) | > 100 µM (inactive) | > 100 µM (inactive) | > 100 µM (inactive) | > 100 µM (inactive) | > 100 µM (inactive) | > 100 µM (inactive) | > 100 µM (inactive) | > 100 µM (inactive) | > 100 µM (inactive) | > 100 µM (inactive) | > 100 µM (inactive)
O=C(/C=C/c1ccc2c(c1)OCO2)CC(=O)/C=C/c1ccc2c(c1)OCO2 | 82.8 µM (inactive) | 19.1 µM (inactive) | > 100 µM (inactive) | > 100 µM (inactive) | 35.6 µM (inactive) | 27.1 µM (inactive) | 45 µM (inactive) | 87.7 µM (inactive) | 37.5 µM (inactive) |  | > 100 µM (inactive) | > 10 µM (inactive) | 57.9 µM (inactive) | > 100 µM (inactive) | 40 µM (inactive) | 34.6 µM (inactive) | 39.1 µM (inactive) | 84.3 µM (inactive)
Cc1c2c(n(CCc3ccc(Cl)cc3)c1C)NN=C(C#N)S2(=O)=O | > 100 µM (inactive) | > 100 µM (inactive) | > 100 µM (inactive) | > 100 µM (inactive) |  | > 100 µM (inactive) |  |  | > 100 µM (inactive) |  | > 100 µM (inactive) | > 100 µM (inactive) | > 100 µM (inactive) | 91.4 µM (inactive) | 64.7 µM (inactive) | > 100 µM (inactive) | 61.9 µM (inactive) | > 100 µM (inactive)
N/N=C(\N)SCc1ccc(N=C=S)cc1 | > 100 µM (inactive) | > 100 µM (inactive) | > 100 µM (inactive) | > 100 µM (inactive) | > 100 µM (inactive) |  | 5.9 µM (inactive) | > 100 µM (inactive) | > 100 µM (inactive) | > 100 µM (inactive) | > 100 µM (inactive) | > 100 µM (inactive) | > 100 µM (inactive) |  | > 100 µM (inactive) | > 100 µM (inactive) | > 100 µM (inactive) | > 100 µM (inactive)
CNC(=O)CCNC(=O)CCC(=O)N(C)C | > 100 µM (inactive) | > 100 µM (inactive) | > 100 µM (inactive) | > 100 µM (inactive) |  | > 100 µM (inactive) | 2.77 µM (inactive) | > 100 µM (inactive) | > 100 µM (inactive) | > 100 µM (inactive) | > 100 µM (inactive) | > 100 µM (inactive) |  | > 100 µM (inactive) | > 100 µM (inactive) | > 100 µM (inactive) | 0.951 µM (active) | > 100 µM (inactive)
COC(=O)c1ccccc1NC(=O)C(=O)CC(=O)CC(c1ccccc1)c1c(O)c2ccccc2oc1=O (stereo not given) | > 100 µM (inactive) | > 100 µM (inactive) | > 100 µM (inactive) | > 100 µM (inactive) | > 100 µM (inactive) | > 100 µM (inactive) | > 100 µM (inactive) | > 100 µM (inactive) | > 100 µM (inactive) | > 100 µM (inactive) | > 100 µM (inactive) |  |  | > 100 µM (inactive) |  |  | > 100 µM (inactive) | > 100 µM (inactive)
